Measurements as given in patent US20180072675A1, “ANTIMICROBIAL PYRIDINOHYDRAZIDE AND HYDRAZOMETHYLPYRIDINE-BASED AGENTS” (Board of Supervisors of Louisiana State University and …, priority 2015, published 2018).
Converted amounts (≈) assume the structure as drawn. “Also recorded” adds a separate entry of the source. Like-named read-outs stand apart in the source and are kept apart here. One block for each compound: values may come before it.

Tests used:
Hep G2 (liver) cells = test: Mammalian cell toxicity, Promega CellTiter 96, liver cells; format: cell-based; details: 24 h
Experimental: Cytotoxicity was determined using non-cancerous Vero cells (kidney-african green monkey) and liver cells (Hep-2G) in accordance with Promega CellTiter 96 Non-Radioactive Cell Proliferation Assay (cat # G4000). Compounds were diluted in media and all assays were done in triplicate. Average values are presented, with ±SD. Cells were incubated in the presence of the compounds for 24 h at 37° C. and 5% CO2. Tetrazolium dye solution was added to each well and allowed to incubate for 1-4 h. Solubilization/Stop solution was added and allowed to sit at room temperature for 1 h. Formazan product was scored spectrophotometrically with an automatic plate reader set at 570 nm. Positive control wells for cell death were briefly treated with 0.1% saponin, immediately prior to the addition of dye solution. Wells containing 1% DMSO and no drug were used as a negative control and the average absorbance at 570 nm were set to 100%. The percent of cells viable were calculated as a ratio between the average absorption at 570 nm of the drug containing wells/average absorption at 570 nm of the control (no drug). Ratios were multiplied by 100 to give the values as a percentage as expressed on the y-axis.
Cytotoxicity studies were performed in accordance with Promega CellTiter 96 Non-RadioactivCell Proliferation Assay (cat #G4000). All cytotoxicity studies used a negative control (wells of either kidney or liver cells containing 1% DMSO but lacking the analog), a positive control (wells of either kidney or liver cells treated with the known cytotoxic agent, saponin) and the serial dilutions of the novel analogs. All control (negative) wells were normalized to 100% viable cells to accurately show the percentage of either liver or kidney cells that remained alive and viable following either overnight incubation with the analogs or 5-minute treatment with 0.1% saponin.

[1] = tested on: Candida glabrata (ATCC Accession No. 48435); test: MIC80 fungal growth inhibition, C. glabrata ATCC 48435; format: cell-based; details: for MIC80: Nakaseomyces glabratus
Experimental: (§1) The antifungal activity of the pyridinohydrazide and hydrazomethylpyridine derivatives described in the s were evaluated in vitro using Candida albicans (ATCC Accession No. 10231) and Candida glabrata (ATCC Accession No. 48435). In addition, the compounds were evaluated for activity against two previously-described clinical isolates of C. albicans known to have developed azole-resistance. These isolates were obtained over a two year period from a single AIDS patient and the development of the azole-resistance mechanisms have been extensively characterized (White T C. Antimicrob. Agents Chemother. (1997) 41: 1482-1487). MIC assays were performed on the clinical isolates 1 and 17 (annotated TW1 and TW17, respectively), where isolate 1 was used as an azole-susceptible control and isolate 17 was considered azole-resistant. All assays were done in accordance with NCCLS reference documents (Clinical Laboratory and Standards Institute. Reference method for Broth Dilution Antifungal Susceptibility Testing of Yeasts: Approved Standard. M27-A3 2010; 28). The results of these screenings are summarized in Tables 1-9 (Examples 20-27) as the minimum concentrations that inhibited more than 80% of fungal growth (MIC80) as compared to positive controls containing 1% DMSO. Assays were performed in HEPES-buffered RPMI-1640 media. All MIC screens used a visual scoring method as opposed to spectroscopic analysis, due to the altered absorbance spectra of many of the compounds.

Candida strain TW17 = test: Time-kill assay; format: cell-based, Candida albicans; details: for Cidal vs Static: four times the MIC for TW17, 48 h; for colonies observed in time-kill assay: after 24 h
Experimental: FIG. 9 illustrates time-kill assays, for representative analogs that were active against the azole-resistant TW17, to determine the cidal or static nature of the analog tested. 100 μl of each sample was spread onto YM agar plates with a sterile bent spreading rod. Plates were incubated at 35° C. overnight and colonies were then counted on each plate.
One of the objectives of this study was to determine the cidal or static nature of the analogs that were active against such as TW17, the azole-resistant clinical isolate. Azoles affect Candida spp. by inhibiting ergosterol biosynthesis, and ultimately prevent their reproduction. This effect has led to the classification of azoles as fungistats. Determining the fungistatic or fungicidal nature of the synthesized compounds of the present disclosure allows a comparison to azoles, in addition to improving the understanding of how the structural motifs might lend toward an alternate mechanism of action. Therefore, time-kill assays were performed using the representative analogs that were active against the azole-resistant TW17 at concentrations at or below 8 μg/mL.
Solid drugs were dissolved in DMSO to a concentration of 10 mg/ml. This stock solution was then further diluted in water to the desired experimental concentration, determined to be four times that of the MIC for the Candida strain TW17 (as reported in the Tables).
Individual colonies of TW17 were suspended in 5 ml of sterile water and adjusted to achieve a McFarland reading between 0.08 and 0.12. The inoculum was then further diluted in sterile water at a ratio of 1:100. Three […] tissue culture tubes were prepared by combining 2.5 ml of above diluted inoculum, 21.7 ml of HEPES buffered RPMI-1640 media, and 800 μl of experimental drug dilution. A “Growth Control” tube was prepared by combining 2.5 ml of inoculum, 21.7 HEPES buffered RPMI-1640 media, and 800 μl of water-DMSO solution equal to the DMSO concentration of the experimental drug dilution. A “Sterile Control” tube was prepared by combining 24.2 ml of HEPES-buffered RPMI-1640 media and 800 μl of water-DMSO solution as in the “Growth Control”. All tubes were incubated for 48 hours at 35° C., 50 rpm. 500 μl samples were taken from the tubes at time points of predetermined intervals during this incubation.
Time points for the “Kill-Curve” and “Growth Control” tubes were taken at 0, 1, 2, 4, 6, 8, 24, and 48 h after the start of incubation. Time points for “Sterile Control” were taken at 0 and 48 hours. Each time point sample was serially diluted 1:10 in sterile 0.9% NaCl solution up to 5 times. 100 μl of each sample was spread onto YM agar plates with a sterile bent spreading rod. Plates were incubated at 35° C. overnight and colonies were then counted on each plate. Colonies on plates from diluted time points were used to estimate uncountable undiluted samples. The number of colonies in undiluted samples was estimated to be 10^n times greater than the diluted sample, where n was the number of dilutions made.

Candida spp. = test: MIC studies, statements pooled over several isolates; format: cell-based, Candida albicans, Candida glabrata; details: for antifungal activity (in words): overall over the isolates tested
Experimental: as §1

[2] = ATCC48435, Azole-resistant, >80% growth inhibition, visual scoring, read-out: MIC80 C. glabrata ATCC No. 48435

- MIC80 [1, 2]: 4 µg/mL (≈ 11.9 µM)
Compound: O=C(N/N=C/c1cc(Br)ccc1O)c1ccc[n+]([O-])c1 [AR27]
- cell toxicity (Hep G2 (liver) cells; 5× MIC): cytotoxic
- Cidal vs Static (Candida strain TW17): fungistatic; also recorded: Static

Compound: O=C(NN=Cc1cc([N+](=O)[O-])ccc1O)c1cccnc1 [AR12]
- activity against azole-resistant isolates (in words) (Candida spp.; azole-resistant isolates): less active
- Cidal vs Static (Candida strain TW17): Static

- MIC80 [1, 2]: 2 µg/mL (≈ 7.83 µM)
Compound: Cc1ccc(O)c(/C=N/NC(=O)c2ccccn2)c1 [AR2, (E)-N′-(2-Hydroxy-5-methylbenzylidene)picolinohydrazide]
- cell toxicity (Hep G2 (liver) cells; 100× MIC): minimal toxicity
- Cidal vs Static (Candida strain TW17): Static

- MIC80 [1, 2]: 16 µg/mL (≈ 81.1 µM)
Compound: C(=N\Nc1ccccc1)/c1cccnc1 [AR44]
- cell toxicity (Hep G2 (liver) cells; 100× MIC): toxic
- cell toxicity (Hep G2 (liver) cells; through 10× MIC): no cell toxicity
- antifungal activity (in words) (Candida spp.): moderate antifungal activity
- colonies observed in time-kill assay (Candida strain TW17): no observed colonies
- Cidal vs Static (Candida strain TW17): fungicidal; also recorded: Cidal

Compound: C(=N\Nc1ccccc1)/c1ccncc1 [AR48]
- cell toxicity (Hep G2 (liver) cells; 100× MIC): toxic
- cell toxicity (Hep G2 (liver) cells; through 10× MIC): no cell toxicity
- MIC80 ([1]; ATCC48435, read-out: MIC80 C. glabrata ATCC No. 48435): 4 µg/mL (≈ 20.3 µM)
- antifungal activity (in words) (Candida spp.): moderate antifungal activity
- colonies observed in time-kill assay (Candida strain TW17): no observed colonies
- Cidal vs Static (Candida strain TW17): fungicidal; also recorded: Cidal

Compound: O=C(NN=Cc1cc([N+](=O)[O-])ccc1O)c1ccncc1 [AR18]
- cell toxicity (Hep G2 (liver) cells; 100× MIC): minimal cytotoxicity
- cell toxicity (Hep G2 (liver) cells; through 10× MIC): not toxic
- MIC80 C. glabrata ATCC No. 48435 ([1]; Azole-resistant, >80% growth inhibition, visual scoring): 31 µg/mL (≈ 108 µM)
- antifungal activity (in words) (Candida spp.): most potent
- Cidal vs Static (Candida strain TW17): Static
